What all share (format): functional
In assay [1] the test system is Mycoplasmoides pneumoniae. Nature of the assay: Antimicrobial activity against macrolide-susceptible Mycoplasma pneumoniae Mac.
Assay [2] concerns Mycoplasmoides pneumoniae. Nature of the assay: Antimicrobial activity against macrolide-susceptible Mycoplasma pneumoniae M129.
For assay [3], the system named is Mycoplasmoides pneumoniae. Put plainly: Antimicrobial activity against macrolide-susceptible Mycoplasma pneumoniae FH.
The subject of assay [4] is Mycoplasmoides pneumoniae. Put plainly: Antimicrobial activity against macrolide-resistant Mycoplasma pneumoniae with 23S rRNA A2064G mutant isolate 4.
Assay [5] relates to Mycoplasmoides pneumoniae. Put plainly: Antimicrobial activity against macrolide-resistant Mycoplasma pneumoniae with 23S rRNA A2063G mutant isolate 6.
Assay [6] deals with Mycoplasmoides pneumoniae. Nature of the assay: Antimicrobial activity against macrolide-resistant Mycoplasma pneumoniae with 23S rRNA A2063G mutant isolate 1.
For assay [7], the system named is Mycoplasmoides pneumoniae. Put plainly: Antimicrobial activity against macrolide-resistant Mycoplasma pneumoniae with 23S rRNA A2064G mutant isolate 2.

Each structure is given as a SMILES string. ≈ marks a conversion by molar mass, not a printed value.

What is called MIC is the smallest concentration in the dilution series that meets the test's criterion for growth inhibition. A higher MIC goes with a need for much substance.

For the compound `CN(C)c1ccc(O)c2c1C[C@H]1C[C@H]3[C@H](N(C)C)C(O)=C(C(N)=O)C(=O)[C@@]3(O)C(O)=C1C2=O` [MINOCYCLINE], the minimal inhibitory concentration (MIC) is 0.25 µg/mL (≈ 0.546 µM) in assay [1]; 0.25 µg/mL (≈ 0.546 µM) in assay [2]; 0.5 µg/mL (≈ 1.09 µM) in assay [3]; 0.25 µg/mL (≈ 0.546 µM) in assay [4]; 0.25 µg/mL (≈ 0.546 µM) in assay [5]; 0.25 µg/mL (≈ 0.546 µM) in assay [6]. The compound also yielded a minimum inhibitory concentration (MIC) in assay [7] of 0.25 µg/mL (≈ 0.546 µM).

Regarding `CC[C@H]1OC(=O)[C@H](C)[C@@H](O[C@H]2C[C@@](C)(OC)[C@@H](O)[C@H](C)O2)[C@H](C)[C@@H](O[C@@H]2O[C@H](C)C[C@H](N(C)C)[C@H]2O)[C@](C)(OC)C[C@@H](C)C(=O)[C@H](C)[C@@H](O)[C@]1(C)O` [CLARITHROMYCIN], the MIC in assay [1] is 0.002 µg/mL (≈ 0.00267 µM); in assay [2], 0.002 µg/mL (≈ 0.00267 µM); in assay [3], 0.004 µg/mL (≈ 0.00535 µM); in assay [4], 8 µg/mL (≈ 10.7 µM); in assay [5], 32 µg/mL (≈ 42.8 µM); in assay [6] it was 32 µg/mL (≈ 42.8 µM). In assay [7], this compound came in with an MIC of 8 µg/mL (≈ 10.7 µM).

On to `C[C@H]1NCc2cc(-c3ccc4c(=O)c(C(=O)O)cn(C5CC5)c4c3OC(F)F)ccc21` [GARENOXACIN], for which the minimum inhibitory concentration (MIC) in assay [1] was found to be 0.016 µg/mL (≈ 0.0375 µM); in assay [2], 0.016 µg/mL (≈ 0.0375 µM); in assay [3] it was 0.016 µg/mL (≈ 0.0375 µM); in assay [4] it was 0.016 µg/mL (≈ 0.0375 µM); in assay [5], 0.031 µg/mL (≈ 0.0727 µM); in assay [6], 0.016 µg/mL (≈ 0.0375 µM). For the same compound, the minimal inhibitory concentration (MIC) in assay [7] is 0.016 µg/mL (≈ 0.0375 µM).

For the compound `COc1c(N2CCNC(C)C2)c(F)cc2c(=O)c(C(=O)O)cn(C3CC3)c12` (stereo not given) [GATIFLOXACIN], the minimum inhibitory concentration (MIC) was found to be 0.063 µg/mL (≈ 0.168 µM) in assay [1]; 0.063 µg/mL (≈ 0.168 µM) in assay [2]; 0.063 µg/mL (≈ 0.168 µM) in assay [3]; 0.031 µg/mL (≈ 0.0826 µM) in assay [4]; 0.063 µg/mL (≈ 0.168 µM) in assay [5]; 0.031 µg/mL (≈ 0.0826 µM) in assay [6]. Moreover, 0.063 µg/mL (≈ 0.168 µM) was the least that counted as inhibitory in assay [7] (MIC).

On to `C[C@H]1COc2c(N3CCN(C)CC3)c(F)cc3c(=O)c(C(=O)O)cn1c23.C[C@H]1COc2c(N3CCN(C)CC3)c(F)cc3c(=O)c(C(=O)O)cn1c23.O` [LEVOFLOXACIN], for which the MIC in assay [1] was 0.25 µg/mL; in assay [2], 0.25 µg/mL; in assay [3], 0.5 µg/mL; in assay [4] it was 0.25 µg/mL; in assay [5], 0.5 µg/mL; in assay [6] it was 0.25 µg/mL. The compound also showed a minimum inhibitory concentration (MIC) in assay [7] of 0.25 µg/mL.

(Values after ChEMBL document CHEMBL1143834, “Activity of Garenoxacin against Macrolide-Susceptible and -Resistant Mycoplasma pneumoniae” (2007).)
